Test results taken from the NIST ThermoML archive (doi:10.1021/je500886a).

Assay: mn = molality of the nth substance listed, in mol/kg
Conditions: 101 kPa, Liquid

OC[C@@H](O)[C@H](O)[C@@H](O)CO [xylitol] + O
Conditions | mass density, 288.15 K [kg/m3] | mass density, 298.15 K [kg/m3] | mass density, 308.15 K [kg/m3] | mass density, 318.15 K [kg/m3] | viscosity, 288.15 K [mPa·s] | viscosity, 298.15 K [mPa·s] | viscosity, 308.15 K [mPa·s] | viscosity, 318.15 K [mPa·s]
m1 = 0.04981 | – | – | – | – | 1.164 | 0.909 | 0.733 | 0.607
m1 = 0.0542 | 1001.89 | 999.75 | 996.72 | 992.86 | – | – | – | –
m1 = 0.06784 | – | – | – | – | 1.173 | 0.915 | 0.738 | 0.611
m1 = 0.07245 | 1002.81 | 1000.65 | 997.6 | 993.73 | – | – | – | –
m1 = 0.0852 | 1003.45 | 1001.27 | 998.22 | 994.33 | – | – | – | –
m1 = 0.08897 | – | – | – | – | 1.183 | 0.922 | 0.743 | 0.615
m1 = 0.1059 | – | – | – | – | 1.191 | 0.93 | 0.747 | 0.619
m1 = 0.1095 | 1004.66 | 1002.44 | 999.37 | 995.46 | – | – | – | –
m1 = 0.1313 | – | – | – | – | 1.204 | 0.939 | 0.755 | 0.624
m1 = 0.1314 | 1005.74 | 1003.49 | 1000.41 | 996.48 | – | – | – | –
m1 = 0.1501 | – | – | – | – | 1.212 | 0.945 | 0.76 | 0.628
m1 = 0.1527 | 1006.77 | 1004.5 | 1001.41 | 997.46 | – | – | – | –

O=C(CO)[C@@H](O)[C@H](O)[C@@H](O)CO [L-sorbose] + O
Conditions | mass density [kg/m3] | viscosity [mPa·s]
288.15 K, m1 = 0.04909 | – | 1.162
288.15 K, m1 = 0.05105 | 1002.68 | –
288.15 K, m1 = 0.06584 | 1003.7 | –
288.15 K, m1 = 0.0704 | – | 1.173
288.15 K, m1 = 0.08456 | – | 1.182
288.15 K, m1 = 0.08815 | 1005.22 | –
288.15 K, m1 = 0.1091 | – | 1.195
288.15 K, m1 = 0.1289 | – | 1.206
288.15 K, m1 = 0.1505 | 1009.38 | –
288.15 K, m1 = 0.1507 | – | 1.216
298.15 K, m1 = 0.04909 | – | 0.907
298.15 K, m1 = 0.05105 | 1000.57 | –
298.15 K, m1 = 0.06584 | 1001.57 | –
298.15 K, m1 = 0.0704 | – | 0.916
298.15 K, m1 = 0.08456 | – | 0.923
298.15 K, m1 = 0.08815 | 1003.06 | –
298.15 K, m1 = 0.1073 | 1004.33 | –
298.15 K, m1 = 0.1091 | – | 0.931
298.15 K, m1 = 0.1507 | – | 0.947
308.15 K, m1 = 0.04909 | – | 0.733
308.15 K, m1 = 0.06584 | 998.56 | –
308.15 K, m1 = 0.0704 | – | 0.738
308.15 K, m1 = 0.08815 | 1000.04 | –
308.15 K, m1 = 0.1073 | 1001.3 | –
308.15 K, m1 = 0.1091 | – | 0.75
308.15 K, m1 = 0.1289 | – | 0.756
308.15 K, m1 = 0.1317 | 1002.89 | –
308.15 K, m1 = 0.1505 | 1004.1 | –
308.15 K, m1 = 0.1507 | – | 0.762
318.15 K, m1 = 0.04909 | – | 0.606
318.15 K, m1 = 0.05105 | 993.72 | –
318.15 K, m1 = 0.06584 | 994.7 | –
318.15 K, m1 = 0.0704 | – | 0.611
318.15 K, m1 = 0.08456 | – | 0.615
318.15 K, m1 = 0.08815 | 996.17 | –
318.15 K, m1 = 0.1073 | 997.41 | –
318.15 K, m1 = 0.1091 | – | 0.62
318.15 K, m1 = 0.1289 | – | 0.624
318.15 K, m1 = 0.1317 | 998.98 | –
318.15 K, m1 = 0.1505 | 1000.18 | –
318.15 K, m1 = 0.1507 | – | 0.629

OC[C@@H](O)[C@@H](O)[C@H](O)[C@H](O)CO [D-mannitol] + O
Conditions | mass density, 288.15 K [kg/m3] | mass density, 298.15 K [kg/m3] | mass density, 308.15 K [kg/m3] | mass density, 318.15 K [kg/m3] | viscosity, 288.15 K [mPa·s] | viscosity, 298.15 K [mPa·s] | viscosity, 308.15 K [mPa·s] | viscosity, 318.15 K [mPa·s]
m1 = 0.04909 | 1002.3 | 1000.12 | 997.07 | 993.22 | – | – | – | –
m1 = 0.05269 | – | – | – | – | 1.176 | 0.918 | 0.74 | 0.611
m1 = 0.06889 | 1003.56 | 1001.34 | 998.27 | 994.41 | – | – | – | –
m1 = 0.07011 | – | – | – | – | 1.189 | 0.927 | 0.747 | 0.617
m1 = 0.09002 | 1004.91 | 1002.62 | 999.54 | 995.65 | – | – | – | –
m1 = 0.09107 | – | – | – | – | 1.203 | 0.936 | 0.754 | 0.621
m1 = 0.1097 | – | – | – | – | 1.217 | 0.945 | 0.761 | 0.627
m1 = 0.1134 | 1006.38 | 1004.04 | 1000.93 | 997.03 | – | – | – | –
m1 = 0.1266 | 1007.19 | 1004.82 | 1001.71 | 997.8 | – | – | – | –
m1 = 0.1293 | – | – | – | – | 1.23 | 0.955 | 0.765 | 0.633
m1 = 0.1469 | 1008.45 | 1006.03 | 1002.9 | 998.97 | – | – | – | –
m1 = 0.15 | – | – | – | – | 1.246 | 0.964 | 0.774 | 0.639
